Measurements as given in US20020040062A1, “Protein kinase C activators and their use in decreasing expression of cell antigens” (The Trustees of Columbia University, priority 1993, published 2002).
Marks after values point to notes of the source that are not given here.

Columns and labels:
Assay type in all cases: cell-based, human
BCA 225 [1] = assay: BCA 225 synthesis, double-determinant ELISA of T47D cell lysates; conditions: T47D cells, 72 hr
Protocol: (§1) After appropriate incubation times with the various compounds cell lysates were prepared from T47D cells. Cells were washed 3× in PBS, pH 7.6, pelleted and incubated for 1 hr at room temperature in 20 mM Tris HCl, pH 7.4, with PMSF. Cultures were then homogenized with a Teflon homogenizer, centrifuged at 3000 RPM for 10 min at 4° C. and the supernatant was mixed 1:2 with 20 mM Tris-HCl, pH 7.4, containing 0.5% NP40 (Sigma). After 1 hr at 4° C., the mixture was spun at 3000 RPM for 10 min and the supernatant was passed through an EXTRACTIGEL column (Pierce, Ill.) to remove excess detergent. Protein concentration was determined by the BCA micro-method (Pierce, Ill.). BCA 225 levels in cell extracts and supernatants from control and treated T47D cells were quantitated using a double-determinant ELISA assay. Briefly, Cu18 monoclonal antibody coated Nunc Immunoplates (Nunc, Denmark) were blocked with 1% BSA (Sigma, RIA Reagent Grade) and incubated with a 1:2 dilution of supernatant in duplicate. Standard values for a partially purified BCA 225 preparation were used at a range of 0 to 10 μg/ml in RPMI 1640 plus 10% FBS (T47D growth medium). After 2 hr incubation and three washings with PBS 0.1% Tween 20 a Cu46 monoclonal antibody conjugated to peroxidase was applied to the plate, incubated for 2 hr, washed 6× in PBS 0.1% Tween 20 and the reaction was developed with […] OPD (Sigma, St. Louis) and 4 μl of 30% H2O2 in McIlvans buffer, pH […]. The plates were read on a Dynatech Elisa reader and a linear standard curve was generated and used to calculate the relative amount of BCA 225 in cell lysates and shed into the culture medium. Results were adjusted to ng BCA 225 per mg of protein, or per 1×10^6 cells. Replicate samples varied by ≦10% and replicate experiments varied by ≦20%.

HLA Class II antigens = assay: FACS analysis of HLA Class II antigen surface expression in T47D cells; conditions: for HLA Class II level of upregulation versus untreated control cells (equivalent to 1.0): presence or absence of 0.1 μg/ml H-7; for HLA Class II relative increase in expression versus untreated controls (equivalent to 1.0): presence or absence of 1.0 μg/ml H-7; for fold increase in HLA Class II expression: 500 units/ml IFN-α, IFN-β or IFN-γ as in Table 3
From the text: (§2) IgG1 murine monoclonal antibody Cu18 and Cu46 recognize two different epitopes of a highly restricted breast carcinoma associated glycoprotein of Mr 225,000 to 250,000 (BCA 225). This TAA is expressed intracytoplasmically and on the membrane of 94% of breast tumors tested and in the T47D human breast carcinoma cell line. BCA 225 is shed into the culture medium by T47D cells and into the sera of breast cancer patients. IgG2a monoclonal antibody L243 (anti HLA Class II-DR) recognizes a monomorphic HLA Class II-DR-α epitope (ATCC M355). Monoclonal antibody CL203.4 [40], which recognizes ICAM-I, was kindly provided by Dr. S. Ferrone, New York Medical College, NY. The c-erbB-2 monoclonal antibody which recognizes the extracellular domain of c-erbB-2 was obtained from Triton Biosciences, Inc., Alamedia, Calif. Monoclonal antibodies Cu18 and Cu46 were used at 0.05 μg/ml and monoclonal antibodies interacting with HLA Class II-DR, ICAM-1 and c-erbB-2 were used at 10 μg/ml.
(§3) T47D cells treated with the various compounds were analyzed by flow cytometry using appropriate monoclonal antibody concentrations as described previously. Briefly, 1×10^5 cells were incubated with the test antibody for 30 min at 4° C., washed 3× with PBS and incubated with a goat a mouse F (ab)2 FITC conjugated test antibody at a 1:40 dilution for 30 min at 4° C. Cells were then washed 3× with PBS and analyzed on a FACStar (Beckon Dickinson, Mountain View, Calif.) or a Coulter Epics IV FACS (Coulter, Hialeah, Fla.). Results are expressed as mean fluorescence intensity (MFI) units which were determined as described previously. MFI=(mean channel fluorescence in fluorescence positive antibody-binding cells×% of fluorescence positive antibody-binding cells)−(mean channel fluorescence in unstained cells×% of fluorescence positive cells in the unstained population). All studies were performed a minimum of three or four times with duplicate samples in each experiment.

BCA 225 [2] = assay: FACS analysis of BCA 225 surface expression in T47D cells; conditions: 72 hr; for BCA 225 Expression, level of enhancement relative to control (equivalent to 1.0): presence or absence of 0.1 μg/ml H-7
From the text: as §2, with “μg/ml. For each experiment, isotype matched control backgrounds (IgG for Cu18, Cu46 and ICAM-1, IgG2a for HLA Class Ii and IgG2b for c-erbB-2) were subtracted from the experimental results. Background from antimouse IgG FITC antibody was also subtracted from experimental results. Applicants never observed backgrounds higher than 2% of total cells for isotypic mouse IgG or higher than 5% for antimouse IgG FITC.” for “μg/ml.”
as §3, with “experiment. Replicate samples within individual experiments varied by ≦10% and variation between experiments were generally ≦20%.” for “experiment.”

BCA 225 [3] = assay: BCA 225 shedding into culture medium, double-determinant ELISA; conditions: T47D cells; for BCA 225 Shedding / BCA 225 Shedding, level of enhancement relative to control (equivalent to 1.0) / BCA 225 Shedding, relative change in comparison with controls (equivalent to 1.0): 72 hr; for ability to induce shedding of BCA 225: Table 2
Protocol: as §1

[4] = 0.1 μg/ml TPA, 0.1 μg/ml MEZ or 0.25 μg/ml ADMB, presence or absence of 0.1 μg/ml H-7
[5] = 72 hr, 0.1 μg/ml TPA or MEZ, presence or absence of 0.1 μg/ml H-7, FACStar
[6] = 0.1 μg/ml TPA, 0.1 μg/ml MEZ or 0.25 μg/ml ADMB
[7] = 0.1 μg/ml TPA, 0.1 μg/ml MEZ or 0.25 μg/ml ADMB, presence or absence of 0.1 μg/ml H-7, CU18 antibody
[8] = 500 units/ml IFN-β or 50 units/ml IFN-γ, presence or absence of 1.0 μg/ml H-7
[9] = 72 hr, 500 units/ml IFN-β or 50 units/ml IFN-γ
[10] = 72 hr, 500 units/ml IFN-β or 50 units/ml IFN-γ, presence or absence of 1.0 μg/ml H-7, Coulter Epics IV FACS

## CCCCCCCCCCCCCC(=O)O[C@@H]1[C@@H](C)[C@@]2(O)[C@@H](C=C(CO)C[C@]3(O)C(=O)C(C)=C[C@@H]23)[C@H]2C(C)(C)[C@]12OC(C)=O [TPA, 12-0-tetradecanoyl-phorbol-13-acetate]
BCA 225 [1]; [4]
  BCA 225 Synthesis: 394 ng/mg protein
  BCA 225 Synthesis, level of enhancement relative to control (equivalent to 1.0): 2.4
HLA Class II antigens; 72 hr, 0.1 μg/ml TPA or MEZ
  HLA Class II level of upregulation versus untreated control cells (equivalent to 1.0): (2.9)
HLA Class II antigens; [5]
  Antigenic Expression (MFI) HLA Class II: 9,984 MFI
BCA 225 [2]; [6]
  BCA 225 Expression, level of enhancement relative to control (equivalent to 1.0): 1.8
BCA 225 [2]; [7]
  BCA 225 Expression: 11,696 MFI
BCA 225 [3]; [4]
  BCA 225 Shedding: 84 ng/ml/10^6 cells
  BCA 225 Shedding, level of enhancement relative to control (equivalent to 1.0): 3.0
BCA 225 [3]
  ability to induce shedding of BCA 225: enhance shedding of BCA 225

## CC1CNCCN1S(=O)(=O)c1cccc2cnccc12.Cl.Cl (stereo not drawn) [H-7, 1-(5-isoquinolinesulfonyl)-2-methylpiperazine dihydrochloride]
BCA 225 [1]; [4]
  BCA 225 Synthesis: 142 ng/mg protein
  BCA 225 Synthesis, level of enhancement relative to control (equivalent to 1.0): 0.9
BCA 225 [1]; [8]
  BCA 225 Synthesis: 230 ng/mg protein
  BCA 225 Synthesis, relative change in comparison with controls (equivalent to 1.0): 1.0
HLA Class II antigens; 72 hr, 0.1 μg/ml TPA or MEZ
  HLA Class II level of upregulation versus untreated control cells (equivalent to 1.0): (1.3)^b
HLA Class II antigens; [5]
  Antigenic Expression (MFI) HLA Class II: 4,563 MFI
HLA Class II antigens; [9]
  HLA Class II relative increase in expression versus untreated controls (equivalent to 1.0): 1.2
HLA Class II antigens; [10]
  Antigenic Expression (MFI) HLA Class II: 3,490 MFI
BCA 225 [2]; [6]
  BCA 225 Expression, level of enhancement relative to control (equivalent to 1.0): 0.8
BCA 225 [2]; [7]
  BCA 225 Expression: 5,428 MFI
BCA 225 [2]; [8]
  BCA 225 Expression: 2,560 MFI
  BCA 225 Expression, relative change in comparison with controls (equivalent to 1.0): 0.9
BCA 225 [3]; [4]
  BCA 225 Shedding: 23 ng/ml/10^6 cells
  BCA 225 Shedding, level of enhancement relative to control (equivalent to 1.0): 0.8
BCA 225 [3]; [8]
  BCA 225 Shedding: 38 ng/ml/10^6 cells
  BCA 225 Shedding, relative change in comparison with controls (equivalent to 1.0): 0.8

## C=C(C)[C@@]12O[C@@]3(c4ccccc4)O[C@@H]1[C@@H]1[C@@H]4O[C@]4(CO)[C@@H](O)[C@]4(O)C(=O)C(C)=C[C@H]4[C@@]1(O3)[C@H](C)[C@H]2OC(=O)/C=C/C=C/c1ccccc1 [MEZ, mezerein]
BCA 225 [1]; [4]
  BCA 225 Synthesis: 507 ng/mg protein
  BCA 225 Synthesis, level of enhancement relative to control (equivalent to 1.0): 3.1
HLA Class II antigens; 72 hr, 0.1 μg/ml TPA or MEZ
  HLA Class II level of upregulation versus untreated control cells (equivalent to 1.0): (3.0)
HLA Class II antigens; [5]
  Antigenic Expression (MFI) HLA Class II: 10,260 MFI
BCA 225 [2]; [6]
  BCA 225 Expression, level of enhancement relative to control (equivalent to 1.0): 2.5
BCA 225 [2]; [7]
  BCA 225 Expression: 16,065 MFI
BCA 225 [3]; [4]
  BCA 225 Shedding: 147 ng/ml/10^6 cells
  BCA 225 Shedding, level of enhancement relative to control (equivalent to 1.0): 5.3
BCA 225 [3]
  ability to induce shedding of BCA 225: enhance shedding of BCA 225

## CCCCCCCCCCN(C)c1cc(CO)cc(NC(C)=O)c1 [ADMB, 3-(N-acetylamino)-5-(N-decyl-N-methylamino)-benzyl alcohol]
BCA 225 [1]; [4]
  BCA 225 Synthesis: 299 ng/mg protein
  BCA 225 Synthesis, level of enhancement relative to control (equivalent to 1.0): 1.8
HLA Class II antigens; 72 hr, 0.1 μg/ml of ADMB, TPA or MEZ
  efficacy of upregulation of HLA Class II antigens (fold-change in MFI, FIG. 2): somewhat more effective than TPA and MEZ
BCA 225 [2]; [6]
  BCA 225 Expression, level of enhancement relative to control (equivalent to 1.0): 2.0
BCA 225 [2]; [7]
  BCA 225 Expression: 12,825 MFI
BCA 225 [3]; [4]
  BCA 225 Shedding: 26 ng/ml/10^6 cells
  BCA 225 Shedding, level of enhancement relative to control (equivalent to 1.0): 0.9
BCA 225 [3]
  ability to induce shedding of BCA 225: did not induce this effect

B1: IFN-γ: recombinant human immune interferon produced in Escherichia coli (protein, UniProt P01579 24-161, looked up)
Interferon gamma: QDPYVKEAENLKKYFNAGHSDVADNGTLFLGILKNWKEESDRKIMQSQIVSFYFKLFKNFKDDQSIQKSVETIKEDMNVKFFNSNKKKRDDFEKLTNYSVTDLNVQRKAIHELIQVMAELSPAAKTGKRKRSQMLFRG
BCA 225 [1]; [8]
  BCA 225 Synthesis: 722 ng/mg protein
  BCA 225 Synthesis, relative change in comparison with controls (equivalent to 1.0): 3.2
HLA Class II antigens
  fold increase in HLA Class II expression: 69 fold
HLA Class II antigens; [9]
  HLA Class II relative increase in expression versus untreated controls (equivalent to 1.0): 69.2
HLA Class II antigens; [10]
  Antigenic Expression (MFI) HLA Class II: 202,102 MFI
BCA 225 [2]; [8]
  BCA 225 Expression: 9,069 MFI
  BCA 225 Expression, relative change in comparison with controls (equivalent to 1.0): 3.2
BCA 225 [3]; [8]
  BCA 225 Shedding: 64 ng/ml/10^6 cells
  BCA 225 Shedding, relative change in comparison with controls (equivalent to 1.0): 1.4

B2: IFN-β: recombinant human fibroblast interferon with a serine substituted for a cysteine at position 17 (protein, UniProt P01574 22-187, looked up, variant C17S)
Interferon beta: MSYNLLGFLQRSSNFQSQKLLWQLNGRLEYCLKDRMNFDIPEEIKQLQQFQKEDAALTIYEMLQNIFAIFRQDSSSTGWNETIVENLLANVYHQINHLKTVLEEKLEKEDFTRGKLMSSLHLKRYYGRILHYLKAKEYSHCAWTIVRVEILRNFYFINRLTGYLRN
BCA 225 [1]; [8]
  BCA 225 Synthesis: 374 ng/mg protein
  BCA 225 Synthesis, relative change in comparison with controls (equivalent to 1.0): 1.7
HLA Class II antigens
  fold increase in HLA Class II expression: 11 fold
HLA Class II antigens; [9]
  HLA Class II relative increase in expression versus untreated controls (equivalent to 1.0): 10.8
HLA Class II antigens; [10]
  Antigenic Expression (MFI) HLA Class II: 31,413 MFI
BCA 225 [2]; [8]
  BCA 225 Expression: 5,716 MFI
  BCA 225 Expression, relative change in comparison with controls (equivalent to 1.0): 2.0
BCA 225 [3]; [8]
  BCA 225 Shedding: 69 ng/ml/10^6 cells
  BCA 225 Shedding, relative change in comparison with controls (equivalent to 1.0): 1.5
